Measured values from publication PMC5515969, “Effects of 31 FDA approved small-molecule kinase inhibitors on isolated rat liver mitochondria” (Archives of Toxicology, 2016).
Like-named read-outs stand apart in the source and are kept apart here.

Tests used:
RCC III = RCC III activity in submitochondrial particles; type: biochemical, rat; set-up: key to RCC III at 100XCmax: activity relative to DMSO-treated controls (control set as 1 = 100%); details: 100XCmax; relative to DMSO treated samples
Summary of the method: (§1)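 Rat submitochondrial particles (1 mg/ml) were treated with test compounds for 15 min. RCC IV, like RCC III, was monitored at 550 nm every 10 s for 2 min, and RCC I/V at 340 nm each minute for 6 min. DMSO samples defined unit activity.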

[1] = system: isolated rat liver mitochondria; details: positive control alamethicin treated samples
[2] = system: isolated rat liver mitochondria; experiment: Mitochondrial inner membrane potential (MMP), Rhodamine 123; type: biochemical; details: difference in signal between KI and DMSO treated samples at the end of experiments
Text: Fig. 3 KI effects on mitochondrial inner membrane potential (MMP). […] In a, c, data are means and standard derivations from three separate experiments. *p < 0.05 as compared to DMSO-treated samples at the end of experiments. In b, data are means of two independent experiments

RCC I = RCC I activity in submitochondrial particles; type: biochemical, rat; set-up: key to RCC I at 10XCmax / RCC I at 100XCmax / RCC I at 50XCmax / RCC I at 30XCmax / RCC I at 20XCmax: activity relative to DMSO-treated controls (control set as 1 = 100%); details: 10XCmax; relative to DMSO treated samples
Summary of the method: as §1

[3] = system: isolated rat liver mitochondria; experiment: Mitochondrial ROS production (CM-H2DCFDA); details: DMSO treated samples set as 1
RCC V = RCC V activity in submitochondrial particles; type: biochemical, rat; details: relative to DMSO treated samples; for RCC V at 5XCmax: key: 0 indicates that the drug had no effects (negative)
Summary of the method: as §1

RCC II = molecular target: T1, RCC II (Rattus norvegicus, UniProt P21913+Q641Z9+Q6PCT8+Q920L2); experiment: RCC II activity in submitochondrial particles; type: biochemical; set-up: key: activity relative to DMSO-treated controls (control set as 1 = 100%); details: relative to DMSO treated samples
T1 construct: Submitochondrial particles were prepared by subjecting the intact mitochondria to three successive freeze–thaw cycles; from tissue; host or cells: rat liver mitochondria, used as submitochondrial particles
Summary of the method: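 Activity relative to DMSO (set as 1) after 15-min exposure of submitochondrial particles (1 mg/ml) to compound. RCC I is defined as rotenone-sensitive activity and RCC II is followed at 600 nm over 6 min.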

[4] = system: isolated rat liver mitochondria; experiment: Mitochondrial oxygen consumption (glutamate/malate or succinate driven, state 4 and state 3); type: biochemical; details: DMSO treated samples set as 1; for State 3 respiration driven by succinate at 10XCmax: key: 0 indicates that the drug had no effects (negative); for State 3 respiration driven by succinate at 1XCmax: key: 0 indicates that the drug had no effects (negative)
Summary of the method: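 Oxygen uptake on glutamate/malate or on succinate defined state 4; ADP added 3 min later gave state 3. Mitochondria isolated from rat liver by differential centrifugation, adjusted to 1 mg/ml and pretreated 5 min with inhibitor (0.1% DMSO final). Values relative to DMSO control, set to 1.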

[5] = therapeutic maximal blood concentration, ref product labeling, cited from earlier work

T1 sequence (Q920L2 35-656): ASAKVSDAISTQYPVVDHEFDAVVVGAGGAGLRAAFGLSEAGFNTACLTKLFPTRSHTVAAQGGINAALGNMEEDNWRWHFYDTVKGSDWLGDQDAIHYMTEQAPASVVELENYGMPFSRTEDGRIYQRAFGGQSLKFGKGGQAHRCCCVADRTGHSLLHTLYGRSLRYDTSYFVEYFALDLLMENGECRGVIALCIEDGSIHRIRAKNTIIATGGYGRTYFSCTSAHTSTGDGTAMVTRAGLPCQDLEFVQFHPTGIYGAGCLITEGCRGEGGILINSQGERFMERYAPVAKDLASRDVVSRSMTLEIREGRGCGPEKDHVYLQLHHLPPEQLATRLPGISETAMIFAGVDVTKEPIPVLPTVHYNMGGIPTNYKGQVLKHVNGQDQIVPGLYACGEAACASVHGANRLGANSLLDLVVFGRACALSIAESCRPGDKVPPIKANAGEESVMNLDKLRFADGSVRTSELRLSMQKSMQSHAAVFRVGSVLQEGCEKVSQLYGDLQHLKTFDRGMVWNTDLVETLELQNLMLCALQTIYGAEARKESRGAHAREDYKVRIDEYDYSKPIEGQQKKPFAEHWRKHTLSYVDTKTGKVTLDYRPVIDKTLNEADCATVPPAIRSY
T1 sequence (P21913 31-282): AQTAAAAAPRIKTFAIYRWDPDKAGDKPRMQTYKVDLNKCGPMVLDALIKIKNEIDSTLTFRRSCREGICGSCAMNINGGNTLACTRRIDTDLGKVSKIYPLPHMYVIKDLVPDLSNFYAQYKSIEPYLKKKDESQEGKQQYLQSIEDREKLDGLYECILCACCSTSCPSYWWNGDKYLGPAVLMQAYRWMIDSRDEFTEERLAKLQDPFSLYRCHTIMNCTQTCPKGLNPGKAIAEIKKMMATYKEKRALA
T1 sequence (Q641Z9 1-169): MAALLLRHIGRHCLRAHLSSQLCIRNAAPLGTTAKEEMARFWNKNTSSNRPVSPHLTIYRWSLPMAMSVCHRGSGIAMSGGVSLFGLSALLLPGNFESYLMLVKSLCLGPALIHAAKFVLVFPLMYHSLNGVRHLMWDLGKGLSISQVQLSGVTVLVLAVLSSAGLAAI
T1 sequence (Q6PCT8 57-159): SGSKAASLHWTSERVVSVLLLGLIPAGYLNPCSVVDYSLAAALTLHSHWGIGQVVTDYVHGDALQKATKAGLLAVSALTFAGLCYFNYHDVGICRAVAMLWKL

CCN(CC)CCNC(=O)c1c(C)[nH]c(/C=C2\C(=O)Nc3ccc(F)cc32)c1C [sunitinib malate]
61.9 ng/mL: Cmax [5]
0.12 µM: Cmax ([5]; read-out: Cmax at µM)
0: RCC III at 100XCmax (RCC III) | Cytochrome c release 1XCmax ([1]; 1XCmax) | Cytochrome c release 2.5XCmax ([1]; 2.5XCmax) | Cytochrome c release 5XCmax ([1]; 5XCmax) | Cytochrome c release 10XCmax ([1]; 10XCmax) | Cytochrome c release 20XCmax ([1]; 20XCmax) | Cytochrome c release 30XCmax ([1]; 30XCmax) | Cytochrome c release 50XCmax ([1]; 50XCmax) | Cytochrome c release 100XCmax ([1]; 100XCmax) | MMP measured by Rhodamine 123 at 1XCmax ([2]; 1XCmax) | MMP measured by Rhodamine 123 at 2.5XCmax ([2]; 2.5XCmax) | MMP measured by Rhodamine 123 at 5XCmax ([2]; 5XCmax) | MMP measured by Rhodamine 123 at 10XCmax ([2]; 10XCmax) | MMP measured by Rhodamine 123 at 20XCmax ([2]; 20XCmax) | MMP measured by Rhodamine 123 at 30XCmax ([2]; 30XCmax) | MMP measured by Rhodamine 123 at 50XCmax ([2]; 50XCmax) | MMP measured by Rhodamine 123 at 100XCmax ([2]; 100XCmax) | RCC I at 10XCmax (RCC I) | ROS measured by CM-H2DCFDA at 1XCmax ([3]; 1XCmax) | ROS measured by CM-H2DCFDA at 2.5XCmax ([3]; 2.5XCmax) | ROS measured by CM-H2DCFDA at 5XCmax ([3]; 5XCmax) | ROS measured by CM-H2DCFDA at 10XCmax ([3]; 10XCmax) | ROS measured by CM-H2DCFDA at 20XCmax ([3]; 20XCmax) | ROS measured by CM-H2DCFDA at 30XCmax ([3]; 30XCmax) | ROS measured by CM-H2DCFDA at 50XCmax ([3]; 50XCmax) | ROS measured by CM-H2DCFDA at 100XCmax ([3]; 100XCmax) | RCC V at 5XCmax (RCC V; 5XCmax) | RCC V at 50XCmax (RCC V; 50XCmax) | RCC II at 1.0XCmax (RCC II; 1.0XCmax) | RCC II at 2.5XCmax (RCC II; 2.5XCmax) | RCC II at 5XCmax (RCC II; 5XCmax) | RCC II at 10XCmax (RCC II; 10XCmax) | RCC II at 20XCmax (RCC II; 20XCmax) | RCC II at 30XCmax (RCC II; 30XCmax) | RCC II at 50XCmax (RCC II; 50XCmax) | RCC II at 100XCmax (RCC II; 100XCmax) | State 3 respiration driven by glutamate/malate at 1XCmax ([4]; 1XCmax) | State 3 respiration driven by succinate at 1XCmax ([4]; 1XCmax) | State 4 respiration driven by glutamate/malate at 1XCmax ([4]; 1XCmax) | State 4 respiration driven by succinate at 1XCmax ([4]; 1XCmax) | State 3 respiration driven by glutamate/malate at 2.5XCmax ([4]; 2.5XCmax) | State 3 respiration driven by succinate at 2.5XCmax ([4]; 2.5XCmax) | State 4 respiration driven by glutamate/malate at 2.5XCmax ([4]; 2.5XCmax) | State 4 respiration driven by succinate at 2.5XCmax ([4]; 2.5XCmax) | State 3 respiration driven by glutamate/malate at 5XCmax ([4]; 5XCmax) | State 3 respiration driven by succinate at 5XCmax ([4]; 5XCmax) | State 4 respiration driven by glutamate/malate at 5XCmax ([4]; 5XCmax) | State 4 respiration driven by succinate at 5XCmax ([4]; 5XCmax) | State 3 respiration driven by glutamate/malate at 10XCmax ([4]; 10XCmax) | State 3 respiration driven by succinate at 10XCmax ([4]; 10XCmax) | State 4 respiration driven by glutamate/malate at 10XCmax ([4]; 10XCmax) | State 4 respiration driven by succinate at 10XCmax ([4]; 10XCmax) | State 3 respiration driven by glutamate/malate at 20XCmax ([4]; 20XCmax) | State 3 respiration driven by succinate at 20XCmax ([4]; 20XCmax) | State 4 respiration driven by glutamate/malate at 20XCmax ([4]; 20XCmax) | State 4 respiration driven by succinate at 20XCmax ([4]; 20XCmax) | State 3 respiration driven by glutamate/malate at 30XCmax ([4]; 30XCmax) | State 3 respiration driven by succinate at 30XCmax ([4]; 30XCmax) | State 4 respiration driven by glutamate/malate at 30XCmax ([4]; 30XCmax) | State 4 respiration driven by succinate at 30XCmax ([4]; 30XCmax) | State 3 respiration driven by glutamate/malate at 50XCmax ([4]; 50XCmax) | State 3 respiration driven by succinate at 50XCmax ([4]; 50XCmax) | State 4 respiration driven by glutamate/malate at 50XCmax ([4]; 50XCmax) | State 4 respiration driven by succinate at 50XCmax ([4]; 50XCmax) | State 3 respiration driven by glutamate/malate at 100XCmax ([4]; 100XCmax) | State 3 respiration driven by succinate at 100XCmax ([4]; 100XCmax) | State 4 respiration driven by glutamate/malate at 100XCmax ([4]; 100XCmax) | State 4 respiration driven by succinate at 100XCmax ([4]; 100XCmax)
